In assay [1] the target is T1, Human placental alkaline phosphatase (obtained commercially) (Homo sapiens, UniProt P05187).
T1 construct: purchased Worthington Biochem; host or cells: human placenta
The assay can be described thus: biochemical. The following applies: for inhibition at 10000 µM: compound at 10 mM, read-out: % change of activity; for inhibition at 10000 µM / % change of activity: 1 mM PNPP, glycine NaOH pH 10, MgCl2, 30°; for % change of activity: compound at 10 μM. Here is the method:
(§1) Human placental alkaline phosphatase and prostatic phosphatase were obtained commercially. Alkaline phosphatase was assayed in a reaction mixture containing 50 mM glycine NaOH, pH 10, MgCl2 and 1 mM PNPP; prostatic acid phosphatase was assayed in a reaction mixture containing 100 mM acetate, pH 5, 0.1 mM PNPP, and purified phosphotyrosyl protein phosphatase was assayed in 100 mM acetate, pH 5, 0.8 mM PNPP, 0.2 mg/ml BSA and 5 mM DTT. All assays were performed at 30°.
(§2) p-Nitrophenylphosphatase activity was determined in a final volume of […] containing 100 mM acetate, pH 5, 5 mM DTT, 2.5 mg/ml BSA and 1 mM PNPP. The reaction was carried out at 30° C. and terminated with 0.5 ml of 0.2N NaOH. Alkaline PNPP phosphatase activity was similarly determined except that 50 mM glycine NaOH, pH 10, was used as buffer and 10 mM MgCl2 was included in the reaction mixture. Absorption at 410 nm wavelength was recorded on a Gilson spectrophotometer. Units of phosphatase activity were calculated with a millimolar extinction coefficient of 17.5 for p-nitrophenol at 410 nm and pH 11.

In assay [2] the target is T2, Human prostatic acid phosphatase (obtained commercially) (Homo sapiens, UniProt P15309).
T2 construct: purchased Sigma; host or cells: human semen
T2 sequence (P15309 33-386): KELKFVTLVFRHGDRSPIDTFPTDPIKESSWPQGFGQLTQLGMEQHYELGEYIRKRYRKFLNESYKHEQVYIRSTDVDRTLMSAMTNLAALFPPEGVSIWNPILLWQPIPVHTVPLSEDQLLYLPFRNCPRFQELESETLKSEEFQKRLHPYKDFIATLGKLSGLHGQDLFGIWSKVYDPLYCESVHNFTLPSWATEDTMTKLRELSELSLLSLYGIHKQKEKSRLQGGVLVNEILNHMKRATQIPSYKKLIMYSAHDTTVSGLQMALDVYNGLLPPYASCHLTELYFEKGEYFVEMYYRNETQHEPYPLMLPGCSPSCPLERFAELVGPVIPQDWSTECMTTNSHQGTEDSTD
The assay can be described thus: biochemical. The following applies: for inhibition at 10000 µM: compound at 10 mM, read-out: % change of activity; for inhibition at 10000 µM / % change of activity: 0.1 mM PNPP, 100 mM acetate pH 5, 30°; for % change of activity: compound at 10 μM. On the procedure:
as §1, §2

The test system of assay [3] is Purified phosphotyrosyl protein phosphatase from human placental membranes. The class given is biochemical. On the procedure: Phosphotyrosine phosphatase activity was measured by the release of ^32 Pi from ^32 P-Tyr-angiotensin II in a […] reaction mixture containing 0.1M acetate, pH 5, 5 mM DTT, 2.5 mg/ml BSA and 0.05 mM ^32 Pi of ^32 P-Tyr-angiotensin II. After incubation at 30° for 30 minutes, the reaction was terminated by the addition of […] of 10% TCA. 0.2 ml of 1.25 mM KH2 PO4 in 1N H2 SO4 was added as carrier. 0.1 ml of 5% ammonium molybdate was then added. After extraction with 0.5 ml of 1:1 isobutanol:benzene, 0.25 ml of the upper phase was taken and mixed with 10 ml Aquasol II to be counted in a packard scintillation counter.

The test system is the same in assay [4]. Type of assay: biochemical. Here is the method: as §1, §2
This is another data set of the same source.

The mark [5] stands for this setting: pH 10, read-out: % change of activity.
Setting [6] is: pH 5, read-out: % change of activity.
Setting [7] is: compound at 10 mM, 0.8 mM PNPP, 100 mM acetate pH 5, 0.2 mg/ml BSA, 5 mM DTT, 30°.
[8] abbreviates: compound at 10 μM, 0.8 mM PNPP, 100 mM acetate pH 5, 0.2 mg/ml BSA, 5 mM DTT, 30°.

Read-outs that look alike come from different tables or passages of the source.

T1 sequence (P05187 23-506 limits assumed): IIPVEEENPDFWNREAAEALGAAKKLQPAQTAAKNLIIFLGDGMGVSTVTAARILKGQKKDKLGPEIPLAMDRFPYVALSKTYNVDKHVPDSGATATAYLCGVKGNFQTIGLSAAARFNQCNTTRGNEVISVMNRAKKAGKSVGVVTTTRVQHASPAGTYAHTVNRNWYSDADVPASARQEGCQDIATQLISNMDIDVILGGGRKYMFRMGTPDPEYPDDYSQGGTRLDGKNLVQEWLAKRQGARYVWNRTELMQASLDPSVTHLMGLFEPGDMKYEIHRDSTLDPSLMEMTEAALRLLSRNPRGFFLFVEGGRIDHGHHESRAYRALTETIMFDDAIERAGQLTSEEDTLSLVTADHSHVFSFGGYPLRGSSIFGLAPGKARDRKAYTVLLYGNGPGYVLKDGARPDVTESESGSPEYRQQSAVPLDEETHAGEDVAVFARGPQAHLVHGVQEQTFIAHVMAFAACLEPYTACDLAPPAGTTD

As to `O=C(O)CN(CCN(CC(=O)O)CC(=O)O)CC(=O)O` [EDTA, Ethylene diamine tetraacetate], the results for the inhibition at 20000 µM in assay [1] (setting [5]) and in assay [2] (setting [6]) were 94% and 2.2%, respectively. The “effect on PNPP phosphatase activity” value in assay [2] is recorded as “not affected”. The “stimulation of 32P-Tyr-angiotensin II phosphatase activity” value in assay [3] amounted to 29.8%. For the same molecule, the “stimulation of PNPP phosphatase activity” value in assay [4] amounted to 79%. Besides, the “% change of activity” value in assay [4] (purified phosphotyrosyl protein phosphatase, pH 5, 20000 µM) is on record as “+78.9%”.

Take `O=C(O)[C@H](O)[C@@H](O)C(=O)O` [L-tartrate]: the inhibition at 5000 µM in assay [1] (setting [5]) turned out to be 10.4%; in assay [2] (setting [6]), 97.6%. In addition, in assay [3], the “inhibition of 32P-Tyr-angiotensin II phosphatase activity” value is 27.6%. Also, the “effect on PNPP phosphatase activity” value in assay [4] is reported as “nearly completely inhibited”. The “% change of activity” value in assay [4] (purified phosphotyrosyl protein phosphatase, pH 5, 5000 µM) is recorded as -98.1%.

For the molecule `N[C@@H](COP(=O)(O)O)C(=O)O` [p-serine, phosphoserine], the values for the inhibition at 10000 µM in assay [1] and in assay [2] were 92.6% and 19%, respectively. Besides, the “effect on PNPP phosphatase activity” value in assay [2] (concentration not given) is listed as “slightly inhibited”. The “stimulation of 32P-Tyr-angiotensin II phosphatase activity” value in assay [3] (compound at 10 mM) was found to be 4.3%. Further, the “% change of activity” value in assay [4] (setting [7]) was “+73.4%”. Also, the “stimulation of PNPP phosphatase activity” value in assay [4] (text summary of Table I, phosphoserine 10 mM per table) was determined as 73%.

In the case of `N[C@@H](Cc1ccc(OP(=O)(O)O)cc1)C(=O)O` [p-tyrosine, phosphotyrosine], the results for the inhibition at 10000 µM in assay [1] and in assay [2] were 85.6% and 24.4%, respectively. In assay [3] (compound at 10 mM), the “inhibition of 32P-Tyr-angiotensin II phosphatase activity” value turned out to be 11.5%. Further, the “% change of activity” value in assay [4] (setting [7]) is on record as -21.6%. In addition, the “effect on PNPP phosphatase activity” value in assay [4] (concentration not given) was “slightly inhibited”.

In the case of `[O]=[V]([O-])([O-])[O-]` [vanadate], the “% change of activity” value is on record as -18.3% in assay [1], -87.8% in assay [2] and -38.2% in assay [4] (setting [8]). Further, in assay [3] (compound at 10 μM), the “inhibition of 32P-Tyr-angiotensin II phosphatase activity” value is 46.4%. In addition, in assay [4] (compound at 100 μM), the “effect on PNPP phosphatase activity” value is on record as “nearly completely inhibited”.

Turning to molybdate, the “% change of activity” value in assay [1] was 0%; in assay [2], -95.0%; in assay [4] (setting [8]), -96.4%. In assay [3] (compound at 10 μM), the “inhibition of 32P-Tyr-angiotensin II phosphatase activity” value is 20.8%. Also, the “effect on PNPP phosphatase activity” value in assay [4] (compound at 10 μM) is recorded as “nearly completely inhibited”.

These data come from patent US4710469A, “Novel phosphotyrosyl protein phosphatase” (Merck & Co., Inc., priority 1986, dated 1987).
